Several values for one entry are separate records, joined by “and”; a condition that tells them apart may be missing. Identical values can stand only once.

Data set [1] relates to laser-induced thrombosis in the mesenteric microcirculation of the rat. Nature of the data set: Laser-induced thrombosis. In kind it is in vivo, Rats Wistar. Particulars: for Duration of embolisation / Number of emboli: ASA 50 mg/kg s.c. The source says: Principle of Laser-Induced Thrombosis ([…]. et al., 1989; […]. et al., 1983) In this model, lesion of the vascular wall is induced by a laser beam. This beam causes a limited lesion of the vascular endothelium (only 1 to 2 cells are destroyed). This laying bare of the sub-endothelium, which is a thrombogenetic surface, results in the adherence of platelets via glycoproteins. This adherence of platelets is followed by their activation, they form pseudopods and secrete the content of their granules. This activation results in the appearance of glycoprotein binding sites which are necessary for the aggregation of the platelets between them and for platelet adhesion to the thrombogenic surfaces. This lesion is induced in the mesenteric microcirculation of the rat. It is immediately followed by the formation of a thrombus (in a few seconds). This thrombus, which rapidly enlarges under the influence of the blood flow, embolises before being formed again. The substances were subcutaneously injected 1 hour before the tests.

Data set [2] concerns platelet aggregation induced by ADP. Put plainly: Aggregation tests (whole blood aggregometry, ADP 5 μM) after subcutaneous dosing. In kind it is in vivo, Rats Wistar.
The conditions of data set [3]: cited from earlier work.
Data set [4] concerns platelet adhesion and thrombus formation on collagen coated surface. Nature of the data set: Parallel plate chamber: platelet adhesion and thrombus formation on collagen coated surface at 60 dynes/cm^2. Format: cell-based, human. An excerpt: The synergistic effect of asa/betaine on platelet adhesion is studied by perfusing blood on thrombogenic surface such as collagen under shear stress conditions.
Effect of betaine, aspirin or betaine/aspirin combination on platelet adhesion and thrombus formation on collagen coated surface.
We studied the effect of asafbetaine on platelet adhesion and thrombus formation under laminar flow at high shear stress (60 dynes/cm^2) on a collagen coated surface. This high shear stress mimics stenosed arteries. The blood of four fastened healthy subjects was sampled on day 1 as to determine basal values and betaine effect when added in vitro (table1), then the subjects were orally administrated a daily oral bolus dose of 350 mg of ASA during 3 days and their blood sampled on day 3 as to determine ASA effect and ASA+betaine effect when betaine is added in vitro to aspirinized blood at different concentrations (table2).
Citrated human aspirinized blood was pre-labelled with mepacrine and exposed to vehicle alone or betaine (20, 40, and 80 μg/ml) for 20 minutes before perfusion.
The effect of asa/betaine has been evaluated by performing experiments 60 dynes/cm^2 witch mimics arterial thrombosis. Before perfusion citrated whole blood was incubated with saline alone or betaine at concentration of 20, 40, and 80 μg/ml for 20 minutes and then perfused on collagen at 60 dynes/cm^2 At the end of 2 minutes of perfusion, cells were fixed and the area covered by thrombi was calculated by analysis of fluorescent thrombus images acquired by confocal microscopy.
Collagen coated slides. Glass slides were with collagen (200 μg/ml; equine collagen), placed for 1 hour in a water bath at 37° C., and the collagen gel allowed to evaporate for 30 minutes under a ventilated hood. Perfusion with citrated whole blood was started and continued for 2 minutes, then blood was withdrawn from the circuit, and platelet thrombi adherent to the collagen coated surface were fixed and stained with May Grunwald-Giemsa.
Images of platelet thrombi were digitised using a light microscope connected to a computer-based image analysis system. The surface occupied by thrombi and mean thrombus area were evaluated by automatic edge detection using built-in specific functions of a software image.
Platelet adhesion and thrombus formation. Platelet adhesion assay was performed according to the described previously (Alevriadou et al., 1993; Boccardo et al., 1997) with minor modifications. Blood collected on citrate (3,8%) was perfused through a flow chamber using a syringe pump. A flow chamber thermostatized to 37° C. was used in which one surface of the perfusion channel is a glass slide coated with equine collagen.
Flow chamber. The chamber dimensions (30 mm long, 1 mm large, and 150 μm in the thickness) allow to obtain a wide range of shear rate low flow rates of blood.
Citrated whole blood was incubated with the fluorescent dye mepacrine 10 μM (quinacrine dihydrochloride BP; Sigma Chemical, St Louis. MO). Mepacrine concentrated in the dense granules of platelets and in the granules of leukocytes and, at this concentration has no effect on normal platelet function (3). Any fluorescence within the erythrocytes is quenched by haemoglobin. Blood was pre-incubated 5 minutes at 37° C. before perfusion. The system was filled with PBS pH 7.3, then perfusion with blood was started and maintained at the constant flow rate of 1500 sec^−1 (corresponding to a shear stress of 60 dynes/cm^2). After 2 min, perfusion was stopped and the slide with the collagen monolayer was dehydrated and fixed in acetone for 20 minutes.
Images of platelet thrombi on collagen surface were acquired by a confocal inverted laser microscope. The surface occupied by thrombi was evaluated by automatic edge detection using built-in specific functions of a software image.

Data set [5] in a line: Solubility in water / concentrated betaine solution. In kind it is physicochemical.
Where [6] appears, read: experiment A, ASA 100 mg/kg s.c.
Setting [7] is: experiment A, ASA 100 mg/kg s.c., mean.
Setting [8] is: experiment B, ASA 50 mg/kg s.c.
The mark [9] stands for this setting: experiment B, ASA 50 mg/kg s.c., mean.

In the case of `CC(=O)Oc1ccccc1C(=O)O` [ASA, acetylsalicylic acid], the “Number of laser shoots” value is 4 and 3 in data set [1] (experiment A, ASA 100 mg/kg s.c. 1 hour before, rats 1-5 and mean); 3.2 ± 0.45 in data set [1] (experiment A, ASA 100 mg/kg s.c. 1 hour before, rats 1-5 and mean, mean); 2 and 3 in data set [1] (experiment B, ASA 50 mg/kg s.c. 1 hour before, n=6 rats and mean); 2.33 in data set [1] (experiment B, ASA 50 mg/kg s.c. 1 hour before, n=6 rats and mean, mean). Besides, the Duration of embolisation in data set [1] (experiment B) is 4 min and 3 min and 2 min; in data set [1] (experiment B, mean) it was 2.5 min. The Number of emboli in data set [1] (experiment B) was 3 and 4; in data set [1] (experiment B, mean) it was 3.33. Besides, the Number laser shoots in data set [1] (experiment C, ASA 100 mg/kg s.c. 1 hour before, 6 rats and mean) is 4 and 3 and 2. The Amplitude is 2 ohm and 3 ohm and 4 ohm in data set [2] (setting [6]); 2.6 ± 0.89 ohm in data set [2] (setting [7]); 8 Ohm and 9 Ohm and 10 Ohm and 7 Ohm in data set [2] (setting [8]); 8.5 Ohm in data set [2] (setting [9]). The velocity in data set [2] (setting [6]) is 4 ohm/min and 3 ohm/min and 5 ohm/min; in data set [2] (setting [7]), 3.8 ± 0.84 ohm/min; in data set [2] (setting [8]), 7 Ohm/min and 8 Ohm/min and 9 Ohm/min and 6 Ohm/min; in data set [2] (setting [9]) it was 7.33 Ohm/min. The solubility in water entry in data set [3] was “about 0.3%”. For the same compound, the “area covered by thrombi” value in data set [4] (aspirinized blood (350 mg ASA oral daily, 3 days) + saline) is 72856 pixels/field and 121321 pixels/field and 132458 pixels/field and 122652 pixels/field.

For `C[N+](C)(C)CC(=O)O` [betaine, Betaine monohydrate], the “area covered by thrombi” value was 88746 pixels/field and 135241 pixels/field and 122369 pixels/field and 154425 pixels/field in data set [4] (betaine 20 μg/ml in vitro, 20 minutes, subjects 1-4 and mean, monohydrate); 66852 pixels/field and 92433 pixels/field and 89628 pixels/field and 95645 pixels/field in data set [4] (betaine 40 μg/ml in vitro, 20 minutes, monohydrate); 57544 pixels/field and 81585 pixels/field and 76654 pixels/field and 82579 pixels/field in data set [4] (betaine 80 μg/ml in vitro, 20 minutes, monohydrate). Moreover, the “reduction in platelet deposition in respect to vehicle” value in data set [4] (betaine 80 μg/ml, Table 1) is reported as −49%. In data set [4] (high shear stress, versus vehicle-treated blood), the “effect on platelet deposition and thrombus formation” value was “significantly inhibit platelet deposition and consequent thrombus formation”.

On to `O=C(O)c1ccccc1O` [salicylic acid], for which, in data set [5] (cold concentrated betaine solution), the “amount that can be dissolved” value is recorded as “Up to 5%”. Also, in data set [5] (cold concentrated betaine solution vs pure water), the “amount dissolved relative to pure water” value is recorded as 15 times.
